In brackets after ≈: the same amount, converted by molar mass.
Experiments:
[1] = DPPH radical scavenging activity; settings: DPPH 30 μg/mL, absorbance at 515 nm
Procedure: The antioxidant activity of flavonoids was measured by the bleaching rate of DPPH, reported by Blois. In its radical form, DPPH absorbs at the wavelength of 515 nm, but its absorption decreases upon reduction by an antioxidant or a radical compound. The DPPH radical scavenging activity of flavonoids was evaluated according to the method described by Rui Yang, with some modifications. Briefly, 5 mL of DPPH (30 μg/mL) was mixed with 0.1 mL of absolute ethyl alcohol and 0.1 mL of samples with different concentrations. Then, the absorbance of the mixtures was determined at 515 nm. The DPPH radical scavenging activity was calculated as follows: (2) DPPH radical scavenging activity = A0−Ai/A0×100% where A0 and Ai denote the absorbance at 515 nm of the control (DPPH mixed with absolute ethyl alcohol) and the test samples (DPPH mixed with flavonoids).

tyrosinase = assay: In vitro tyrosinase inhibition (dopachrome formation at 493 nm, L-tyrosine substrate); assay type: biochemical; settings: for IC50 anti-tyrosinase activity: tyrosinase 120 unites/mL, phosphate buffer pH 6.8, 30 °C, L-tyrosine
Procedure: The tyrosinase inhibition assay was performed based on a previous study with slight modification. The activity of tyrosinase inhibition was determined using a spectrophotometer by monitoring dopachrome formation at 493 nm. […] After incubation at 30 °C for 10 min, 0.5 mL of L-tyrosine was added to the systems. The reaction systems were incubated at 30 °C for 20 min and absorbance was determined at 493 nm. […] The degree of inhibition of the sample was expressed as 50% inhibition concentration (IC50).
The inhibitory effects of the test samples were expressed as the percentage of tyrosinase inhibition as follows:(1) Tyrosinase inhibition=(A−B)−(C−D)/(A−B)×100% where A and B denote the absorbance at 493 nm of the mixture without the test sample (L-tyrosine mixed with the enzyme in the buffer; the control) and without the test sample or the enzyme (L-tyrosine in the buffer; the blank), respectively; C and D denote those with the test sample and enzyme (L-tyrosine mixed with the enzyme and test sample in the buffer; the reaction mixture) and without the enzyme (L-tyrosine mixed with the test sample in the buffer; the blank version of C).

[2] = Water solubility of quercetin and solubility in niosomes; assay type: physicochemical
Procedure: The water solubility of quercetin was measured with 15 mL of purified water, phosphate buffers with different pH values (pH 5.0, 6.0, 6.8, 7.4, 8.0), and excess quercetin, and placed into vials. The vials were shaken for 24 h in a 37 °C water bath and the supernatant was determined by HPLC after centrifugation.

[3] = Ex vivo drug permeation through rat abdominal skin (transdermal diffusion device); assay type: in vitro ADME; settings: 0.6% Tween80 receptor medium, up to 24 h
Procedure: Rats were sacrificed by cervical dislocation, hair on the abdomen was shaved, and then abdominal skin was separated and placed into physiological saline. Afterward, subcutaneous tissue (muscle, fat, and vascellum) was removed using surgical scissors and hemostatic forceps and then stored at 4 °C with physiological saline for further investigation. […] Then, 0.6% Tween80 solution was selected as the penetration release medium. Skin tissues were placed between the diffusion cell and receptor cell, and 0.4 mL of quercetin preparations (equivalent to 120 μg of quercetin) was applied on the skin. Penetration medium (0.5 mL) was withdrawn from the receptor cell at 1, 2, 4, 6, 8, 10, 12, and 24 h with the replacement of fresh penetration medium (0.5 mL). Penetration mediums withdrawn at different timepoints were diluted to 7 mL with methanol and determined by HPLC after centrifugation and filtration.

[4] = Solubility of quercetin in different release medium; assay type: physicochemical
Procedure: An aqueous solutions of 15 mL of Tween80 and SDS at different concentrations and excess quercetin were placed into each of the vials. Vials were shaken in a 32 °C water bath for 24 h. After 24 h, 5 mL suspension was centrifuged at 3000 rmp for 15 min and 0.2 mL of the supernatant was diluted to 2 mL and determined using HPLC.

Q: With Cc1cc(C(C)(C)C)c(O)c(C(C)(C)C)c1 [Butylated hydroxytoluene (BHT), Butylated hydroxytoluene, reference compound] as the compound, how does the “EC50 DPPH radical scavenging activity” value [1] read?
A: 358.15 ± 1.43 µg/mL (≈ 1630 µM)

Q: What does the source list for O=c1c(O)c(-c2cc(O)c(O)c(O)c2)oc2cc(O)cc(O)c12 [Myricetin]?
A: anti-tyrosinase activity (in words) (tyrosinase): no the anti-tyrosinase activity; EC50 DPPH radical scavenging activity [1]: 118.63 ± 0.57 µg/mL (≈ 373 µM)

Q: For O=c1c(O)c(-c2ccc(O)cc2O)oc2cc(O)cc(O)c12 [Morin], which IC50 anti-tyrosinase activity (tyrosinase) is on record?
A: 4.26 ± 0.47 µg/mL (≈ 14.1 µM)

Q: And the “EC50 DPPH radical scavenging activity” value [1]?
A: 123.06 ± 0.48 µg/mL (≈ 407 µM)

Q: Which results are given for O=c1c(O)c(-c2ccc(O)c(O)c2)oc2cc(O)ccc12 [Festin]?
A: IC50 anti-tyrosinase activity (tyrosinase): 23.10 ± 0.32 µg/mL (≈ 80.7 µM); EC50 DPPH radical scavenging activity [1]: 83.19 ± 0.33 µg/mL (≈ 291 µM)

Q: Which results are given for O=c1c(O)c(-c2ccc(O)c(O)c2)oc2cc(O)cc(O)c12 [Quercetin]?
A: IC50 anti-tyrosinase activity (tyrosinase): 1.59 ± 0.38 µg/mL (≈ 5.26 µM); solubility in niosomes, fold higher than in water [2]: 1247 fold; solubility at 24 h ([2]; 37 °C, water, thermodynamic from solid): 0.21 ± 0.14 µg/mL (≈ 0.695 µM); Solubility ([2]; medium: niosomes, from 300 μg/mL loaded and entrapment 87.3 ± 1.6%): 261.9 ± 4.8 µg/mL (≈ 867 µM); quercetin in the penetration release medium (ex vivo penetration) [3]: could not be determined; Solubility in Tween80 Aqueous Solution ([4]; 0.1% Tween80, 32 °C, 24 h): 12.19 ± 1.05 µg/mL (≈ 40.3 µM); solubility at 24 h ([4]; 0.2% SDS aqueous solution, 0.2% SDS, 32 °C, 24 h, read-out: Solubility in SDS Aqueous Solution): 4.58 ± 0.04 µg/mL (≈ 15.2 µM); solubility at 24 h ([4]; 0.2% Tween80 aqueous solution, 32 °C, aqueous with cosolvent or surfactant or cyclodextrin, thermodynamic from solid, 0.2% Tween80, 32 °C, 24 h, read-out: Solubility in Tween80 Aqueous Solution): 24.7 ± 2.15 µg/mL (≈ 81.8 µM); solubility at 24 h ([4]; 0.3% Tween80 aqueous solution, 0.3% Tween80, 32 °C, 24 h, read-out: Solubility in Tween80 Aqueous Solution): 31.4 ± 0.73 µg/mL (≈ 104 µM); Solubility in SDS Aqueous Solution ([4]; 0.4% SDS, 32 °C, 24 h): 4.22 ± 0.43 µg/mL (≈ 14 µM); solubility at 24 h ([4]; 0.4% Tween80 aqueous solution, 0.4% Tween80, 32 °C, 24 h, read-out: Solubility in Tween80 Aqueous Solution): 41.34 ± 0.19 µg/mL (≈ 137 µM); solubility at 24 h ([4]; 0.6% SDS aqueous solution, 32 °C, aqueous with cosolvent or surfactant or cyclodextrin, thermodynamic from solid, 0.6% SDS, 32 °C, 24 h, read-out: Solubility in SDS Aqueous Solution): 6.48 ± 0.44 µg/mL (≈ 21.4 µM); solubility at 24 h ([4]; 0.6% Tween80 aqueous solution, 0.6% Tween80, 32 °C, 24 h, read-out: Solubility in Tween80 Aqueous Solution): 56.4 ± 1.42 µg/mL (≈ 186 µM); Solubility in pH-0.8%Tween80 Aqueous Solution ([4]; 0.8% Tween80, pH 5.0): 79.49 ± 0.41 μg/mL; solubility at 24 h ([4]; 0.8% Tween80 aqueous solution, 32 °C, aqueous with cosolvent or surfactant or cyclodextrin, thermodynamic from solid, 0.8% Tween80, 32 °C, 24 h, read-out: Solubility in Tween80 Aqueous Solution): 76.1 ± 3.11 µg/mL (≈ 252 µM); solubility at 24 h ([4]; 0.8% Tween80 aqueous solution, 32 °C, pH 5, aqueous with cosolvent or surfactant or cyclodextrin, thermodynamic from solid, 0.8% Tween80, pH 5.0, read-out: Solubility in pH-0.8%Tween80 Aqueous Solution): 76.1 ± 3.11 µg/mL (≈ 252 µM); solubility at 24 h ([4]; 0.8% Tween80 aqueous solution, 32 °C, pH 6.8, aqueous with cosolvent or surfactant or cyclodextrin, thermodynamic from solid, 0.8% Tween80, pH 6.8, read-out: Solubility in pH-0.8%Tween80 Aqueous Solution): 52.4 ± 0.71 µg/mL (≈ 173 µM); solubility at 24 h ([4]; 0.8% Tween80 aqueous solution, pH 7.4, 0.8% Tween80, pH 7.4, read-out: Solubility in pH-0.8%Tween80 Aqueous Solution): 55 ± 6.6 µg/mL (≈ 182 µM); EC50 DPPH radical scavenging activity [1]: 80.75 ± 0.26 µg/mL (≈ 267 µM)

Q: Which results are given for C[C@@H]1O[C@@H](OC[C@H]2O[C@@H](Oc3c(-c4ccc(O)c(O)c4)oc4cc(O)cc(O)c4c3=O)[C@H](O)[C@@H](O)[C@@H]2O)[C@H](O)[C@H](O)[C@H]1O [Rutin]?
A: anti-tyrosinase activity (in words) (tyrosinase): no promising anti-tyrosinase activity; IC50 anti-tyrosinase activity (tyrosinase): >1000 µg/mL; EC50 DPPH radical scavenging activity [1]: 188.28 ± 0.68 µg/mL (≈ 308 µM)

Q: Which results are given for O=C(O)[C@H]1O[C@@H](Oc2cc3oc(-c4ccc(O)cc4)cc(=O)c3c(O)c2O)[C@H](O)[C@@H](O)[C@@H]1O [Breviscapine]?
A: anti-tyrosinase activity (in words) (tyrosinase): no promising anti-tyrosinase activity; IC50 anti-tyrosinase activity (tyrosinase): >1000 µg/mL; EC50 DPPH radical scavenging activity [1]: 368.08 ± 1.04 µg/mL (≈ 796 µM)
